In PubChem BioAssay AID1259411 (Chemical Carcinogenesis Research Information System (CCRIS), 2018):
Calls of active or inactive are those of the source. No rule for the calls is given here.

System: rodent carcinogenicity bioassays, tumor incidence
Test: CCRIS carcinogenicity studies
Source text: The CCRIS database contains chemical records with carcinogenicity, mutagenicity, tumor promotion, and tumor inhibition test results. It was developed by the National Cancer Institute (NCI). Data are derived from studies cited in primary journals, current awareness tools, NCI reports, and other sources. Test results have been reviewed by experts in carcinogenesis and mutagenesis.
CCRIS provides historical information from the years 1985 - 2011. It is no longer updated.
This is an archive assay for CCRIS carcinogenicity studies.

## CCCCOC(=O)c1ccccc1C(=O)OCc1ccccc1
Species: MOUSE, Strain/Sex: B6C3F1/FEMALE, Route: ORAL, Dose: 0, 6000, 12000 PPM IN DIET FOR 103 WK (STUDY DURATION: 105-106 WK), Dose: 0, 6000, 12000 PPM IN DIET FOR 103 WK (STUDY DURATION: 105-106 WK)
  carcinogen call: inactive; negative
Species: MOUSE, Strain/Sex: B6C3F1/MALE, Route: ORAL, Dose: 0, 6000, 12000 PPM IN DIET FOR 103 WK (STUDY DURATION: 104-106 WK), Dose: 0, 6000, 12000 PPM IN DIET FOR 103 WK (STUDY DURATION: 104-106 WK)
  carcinogen call: inactive; negative
Species: RAT, Strain/Sex: F344/FEMALE, Route: ORAL, Dose: 0, 6000, 12000, 24000 PPM IN DIET FOR DURATION OF STUDY (STUDY DURATION: 104 WK), Dose: 0, 6000, 12000, 24000 PPM IN DIET FOR DURATION OF STUDY (STUDY DURATION: 104 WK), Tumor Site: Type of Lesion: PANCREAS: ACINAR CELL ADENOMA, URINARY BLADDER: TRANSITIONAL EPITHELIAL PAPILLOMA
  carcinogen call: equivocal
Species: RAT, Strain/Sex: F344/FEMALE, Route: ORAL, Dose: 0, 24000 PPM IN DIET FOR 105 WK, CONTROL GROUP DIET RESTRICTED TO LIMIT WEIGHTS TO 85% OF AD LIBITUM-FED GROUP (STUDY DU
  carcinogen call: inactive; negative
Species: RAT, Strain/Sex: F344/FEMALE, Route: ORAL, Dose: 0, 24000 PPM IN DIET FOR 106 WK, CONTROL AND DOSED GROUP FED AD LIBITUM (STUDY DURATION: 2 YR)
  carcinogen call: inactive; negative
Species: RAT, Strain/Sex: F344/FEMALE, Route: ORAL, Dose: 0, 24000 PPM IN DIET FOR 106 WK, CONTROL GROUP WAS WEIGHT-MATCHED TO DOSED GROUP (STUDY DURATION: 2 YR)
  carcinogen call: inactive; negative
Species: RAT, Strain/Sex: F344/MALE, Route: ORAL, Dose: 0, 3000, 6000, 12000 PPM IN DIET FOR DURATION OF STUDY (STUDY DURATION: 104 WK), Dose: 0, 3000, 6000, 12000 PPM IN DIET FOR DURATION OF STUDY (STUDY DURATION: 104 WK), Tumor Site: Type of Lesion: PANCREAS: ACINAR CELL ADENOMA, ACINAR CELL ADENOMA OR CARCINOMA
  carcinogen call: active; positive
Species: RAT, Strain/Sex: F344/MALE, Route: ORAL, Dose: 0, 12000 PPM IN DIET FOR 105 WK, CONTROL AND DOSED GROUPS FED AD LIBITUM (STUDY DURATION 2 YR), Tumor Site: Type of Lesion: PANCREAS(ACINUS): ADENOMA
  carcinogen call: active; positive
Species: RAT, Strain/Sex: F344/MALE, Route: ORAL, Dose: 0, 12000 PPM IN DIET FOR 105 WK, CONTROL GROUP DIET RESTRICTED TO LIMIT WEIGHTS TO 85% OF AD LIBITUM-FED GROUPS (STUDY D
  carcinogen call: inactive; negative
Species: RAT, Strain/Sex: F344/MALE, Route: ORAL, Dose: 0, 12000 PPM IN DIET FOR 105 WK, CONTROL GROUP WAS WEIGHT-MATCHED TO DOSED GROUP (STUDY DURATION: 2 YR), Tumor Site: Type of Lesion: PANCREAS(ACINUS): ADENOMA
  carcinogen call: active; positive
Species: RAT, Strain/Sex: F344/MALE, Route: ORAL, Dose: 0, 12000 PPM IN DIET FOR 128 WK, CONTROL GROUP DIET RESTRICTED TO LIMIT WEIGHTS TO 85% OF AD LIBITUM-FED GROUP (STUDY DU
  carcinogen call: inactive; negative

## Nc1ccc(N=Nc2ccccc2)cc1
Species: MOUSE, Strain/Sex: B6C3F1/FEMALE, Route: INTRAPERITONEAL, Dose: 0, 0.3 UMOL/G IN TRIOCTANOIN ONCE ON DAY 1 FOLLOWED BY 0.4 UMOL/G ONCE ON DAY 8, 15 AND 22 (STUDY DURATION: UP TO 10 MO)
  carcinogen call: inactive; negative
Species: MOUSE, Strain/Sex: B6C3F1/MALE, Route: INTRAPERITONEAL, Dose: 0, 0.017, 0.05, 0.15, 0.45 UMOL/G ONCE IN TRIOCTANOIN (STUDY DURATION: 10 MO), Dose: 0, 0.017, 0.05, 0.15, 0.45 UMOL/G ONCE IN TRIOCTANOIN (STUDY DURATION: 10 MO), Tumor Site: Type of Lesion: LIVER: HEPATOMA
  carcinogen call: active; positive
Species: MOUSE, Strain/Sex: B6C3F1/MALE, Route: INTRAPERITONEAL, Dose: 0, 0.3 UMOL/G IN TRIOCTANOIN ONCE ON DAY 1 FOLLOWED BY 0.4 UMOL/G ONCE ON DAY 8, 15 AND 22 (STUDY DURATION: UP TO 10 MO), Tumor Site: Type of Lesion: LIVER: HEPATOMA
  carcinogen call: active; positive
Species: MOUSE, Strain/Sex: C3H/MALE, Route: INTRAPERITONEAL, Dose: 0, 0.45 UMOL/G ONCE IN TRIOCTANOIN (STUDY DURATION: 11 MO), Tumor Site: Type of Lesion: LIVER: HEPATOMA
  carcinogen call: active; positive
Species: MOUSE, Strain/Sex: C57BL/MALE, Route: INTRAPERITONEAL, Dose: 0, 0.45 UMOL ONCE IN TRIOCTANOIN (STUDY DURATION: 11 MO), Tumor Site: Type of Lesion: LIVER: HEPATOMA
  carcinogen call: active; positive
Species: RAT, Route: DERMAL, Tumor Site: Type of Lesion: INTEGUMENTARY SYSTEM (SKIN)
  carcinogen call: active; positive
Species: RAT, Route: ORAL, Tumor Site: Type of Lesion: LIVER
  carcinogen call: active; positive
Species: RAT, Strain/Sex: F344/MALE, Route: INTRAPERITONEAL, Dose: 0, 0.3 UMOL/G IN TRIOCTANOIN ONCE ON DAY 1 FOLLOWED BY 0.4 UMOL/G ONCE ON D 8, 15 AND 22 (STUDY DURATION: 24 MO)
  carcinogen call: inactive; negative

## C=C(C)C
Species: MOUSE, Strain/Sex: B6C3F1/FEMALE, Route: INHALATION, Dose: 0, 500, 2000, 8000 PPM 6 HR/D 5 D/WK FOR 105 WK (STUDY DURATION: 105 WK), Dose: 0, 500, 2000, 8000 PPM 6 HR/D 5 D/WK FOR 105 WK (STUDY DURATION: 105 WK)
  carcinogen call: inactive; negative
Species: MOUSE, Strain/Sex: B6C3F1/MALE, Route: INHALATION, Dose: 0, 500, 2000, 8000 PPM 6 HR/D 5 D/WK FOR 105 WK (STUDY DURATION: 105 WK), Dose: 0, 500, 2000, 8000 PPM 6 HR/D 5 D/WK FOR 105 WK (STUDY DURATION: 105 WK)
  carcinogen call: inactive; negative
Species: RAT, Strain/Sex: F344/N/FEMALE, Route: INHALATION, Dose: 0, 500, 2000, 8000 PPM 6 HR/D 5 D/WK FOR 105 WK (STUDY DURATION: 105 WK), Dose: 0, 500, 2000, 8000 PPM 6 HR/D 5 D/WK FOR 105 WK (STUDY DURATION: 105 WK)
  carcinogen call: inactive; negative
Species: RAT, Strain/Sex: F344/N/MALE, Route: INHALATION, Dose: 0, 500, 2000;8000 PPM 6 HR/D 5 D/WK FOR 105 WK (STUDY DURATION: 105 WK), Dose: 0, 500, 2000;8000 PPM 6 HR/D 5 D/WK FOR 105 WK (STUDY DURATION: 105 WK), Tumor Site: Type of Lesion: THYROID GLAND: FOLLICULAR CELL CARCINOMA
  carcinogen call: equivocal

## C=CC(OCC)OCC
Species: HAMSTER, Strain/Sex: SYRIAN/MALE, Route: GAVAGE, Dose: 0, 2 MG/WK FOR 54 OR 64 WK (STUDY DURATION: 92 WK)
  carcinogen call: inactive; negative
Species: RAT, Strain/Sex: F344/FEMALE, Route: ORAL, Dose: 0, 470, 1200 MG/L IN DRINKING WATER 5 D/WK FOR 100 WK (STUDY DURATION: 130 WK), Dose: 0, 470, 1200 MG/L IN DRINKING WATER 5 D/WK FOR 100 WK (STUDY DURATION: 130 WK)
  carcinogen call: inactive; negative
Species: RAT, Strain/Sex: F344/MALE, Route: ORAL, Dose: 0, 470, 1200 MG/L IN DRINKING WATER 5 D/WK FOR 100 WK (STUDY DURATION: 130 WK), Dose: 0, 470, 1200 MG/L IN DRINKING WATER 5 D/WK FOR 100 WK (STUDY DURATION: 130 WK)
  carcinogen call: inactive; negative

## CCCCCCCN(C)N=O
Species: HAMSTER, Strain/Sex: SYRIAN/FEMALE, Route: GAVAGE, Dose: 0, 6.8 MG/KG 1/WK FOR 40 WK (TOTAL DOSE: 0; 2.1 MMOL) (STUDY DURATION: LIFETIME), Dose: 0, 6.8 MG/KG 1/WK FOR 40 WK (TOTAL DOSE: 0; 2.1 MMOL) (STUDY DURATION: LIFETIME), Tumor Site: Type of Lesion: LIVER: CHOLANGIOMA, LUNG: ALVEOLAR/BRONCHIAL CARCINOMA, ALVEOLAR/BRONCHIAL ADENOMA, ADENOSQUAMOUS CARCINOMA, NASAL MUCOS, Tumor Site: Type of Lesion: LIVER: CHOLANGIOMA, LUNG: ALVEOLAR/BRONCHIAL CARCINOMA, ALVEOLAR/BRONCHIAL ADENOMA, ADENOSQUAMOUS CARCINOMA, NASAL MUCOS
  carcinogen call: active; positive
Species: HAMSTER, Strain/Sex: SYRIAN/MALE, Route: GAVAGE, Dose: 0, 6.8 MG/KG 1/WK FOR 40 WK (TOTAL DOSE: 0; 2.1 MMOL) (STUDY DURATION: LIFETIME), Dose: 0, 6.8 MG/KG 1/WK FOR 40 WK (TOTAL DOSE: 0; 2.1 MMOL) (STUDY DURATION: LIFETIME), Tumor Site: Type of Lesion: LIVER: CHOLANGIOMA, HEMANGIOSARCOMA, LUNG: ALVEOLAR/BRONCHIAL CARCINOMA, ALVEOLAR/BRONCHIAL ADENOMA, ADENOSQUAMOUS CARCI
  carcinogen call: active; positive
